Experimental data: patent US9260382B2, “Methods of reducing virulence in bacteria” (priority 2010, dated 2016)

Test system: hrpA promoter (T3SS)
Experiment: hrpA promoter-probe phrpA in Erwinia amylovora 273, flow cytometry
Format: cell-based
Conditions: Ea273 (phrpA), HIM + 100 μM compound
Protocol: Wild-type Erwinia amylovora 273 was used in this study. The promoter-probe plasmid phrpA was constructed as follows. The hrpA promoter region of Erwinia amylovora 273 was amplified and cloned into pPROBE-NT to produce PhrpA. Plasmid PhrpA was electroporated into Erwinia amylovora 273. Expression of hrpA was analyzed using a FACS Calibur flow cytometer (BD Biosciences, CA). Wild-type Erwinia amylovora 273 containing phrpA was cultured in a hrp-inducing medium (HIM) containing dimethyl sulfoxide (DMSO; solvent of chemical compounds), or HIM supplemented with 100 μM of each compound, and promoter activity was assessed at 6 h and 9 h by measuring GFP intensity using flow cytometry (Table 19).

Row | SMILES | Avg MFI ± SD, hrpA expression (6 h) | Avg MFI ± SD, hrpA expression (9 h)
1 | O=C(O)[C@@H]1C[C@H]1c1ccccc1 (relative stereo) [Compound 010, trans-2-Phenylcyclopropane-1-carboxylic acid] | 336.7 ± 28.1 | 293.0 ± 4.7
2 | O=C(NO)[C@@H]1C[C@H]1c1ccccc1 (relative stereo) [Compound 162, trans-2-Phenylcyclopropane-1-carbohydroxamic acid] | 711.1 ± 2.8 | 701.9 ± 2.8
3 | O=C(O)/C=C/c1ccc(O)cc1O [Compound 002, 2,4-Dihydroxycinnamic acid] | 1365.3 ± 104.9 | 1479.8 ± 72.9
4 | O=C(O)/C=C/c1ccc(O)c(O)c1 [Compound 003, 3,4-Dihydroxycinnamic acid] | 783.4 ± 80.2 | 787.3 ± 25.2
5 | O=C(O)/C=C/c1cccc(O)c1 [Compound 005, meta-coumaric acid] | 1212 ± 47.6 | 1439.1 ± 97.9
6 | O=C(O)CCc1ccc(O)cc1 [Compound 007, 3-(4-Hydroxyphenyl)propionic acid] | 1093.1 ± 62.8 | 1211.0 ± 58.7
7 | O=C(O)CCc1ccccc1 [Compound 008, Hydrocinnamic acid] | 395.9 ± 16.0 | 342.0 ± 11.7
8 | O=C(O)COc1ccccc1 [Compound 009, Phenoxyacetic acid] | 342.7 ± 24.8 | 269.9 ± 15.2
9 | O=C(O)/C=C/c1cccs1 [Compound 011, trans-3-(2-Thienyl)acrylic acid] | 230.1 ± 5.8 | 167.3 ± 8.2
10 | O=C(O)/C=C/c1c[nH]c2ccccc12 [Compound 012, trans-3-Indoleacrylic acid] | 33.7 ± 8.9 | 47.9 ± 6.9
11 | O=C(O)/C=C/c1cccnc1 [Compound 013, trans-3-(3-Pyridyl)acrylic acid] | 468.3 ± 7.7 | 245.7 ± 3.1
12 | O=C(O)/C=C/c1c[nH]cn1 [Compound 014, trans-3-(4-Imidazolyl)acrylic acid] | 874.6 ± 23.1 | 839.2 ± 17.6
13 | COc1ccccc1/C=C/C(=O)O [Compound 015, trans-2-Methoxycinnamic acid] | 342.6 ± 7.0 | 255.1 ± 1.7
14 | COc1cccc(/C=C/C(=O)O)c1 [Compound 016, trans-3-Methoxycinnamic acid] | 265.3 ± 24.4 | 198.5 ± 20.0
15 | COc1ccc(/C=C/C(=O)O)cc1 [Compound 017, trans-4-Methoxycinnamic acid] | 132.5 ± 5.5 | 76.4 ± 2.7
16 | Cc1ccccc1/C=C/C(=O)O [Compound 018, trans-2-Methylcinnamic acid] | 303.8 ± 8.7 | 262.5 ± 9.3
17 | Cc1cccc(/C=C/C(=O)O)c1 [Compound 019, trans-3-Methylcinnamic acid] | 311.5 ± 18.6 | 251.6 ± 13.3
18 | Cc1ccc(/C=C/C(=O)O)cc1 [Compound 020, trans-4-Methylcinnamic acid] | 208.5 ± 2.7 | 145.4 ± 3.7
19 | O=C(O)/C=C/c1ccccc1Cl [Compound 021, trans-2-Chlorocinnamic acid] | 225.7 ± 35.8 | 192.7 ± 8.6
20 | O=C(O)/C=C/c1cccc(Cl)c1 [Compound 022, trans-3-Chlorocinnamic acid] | 332.9 ± 16.9 | 238.3 ± 8.7
21 | O=C(O)/C=C/c1ccc(Cl)cc1 [Compound 023, trans-4-Chlorocinnamic acid] | 171.8 ± 7.7 | 125.8 ± 3.9
22 | O=C(O)/C=C/c1ccccc1C(=O)O [Compound 024, trans-2-Carboxycinnamic acid] | 361.1 ± 76.1 | 332.2 ± 19.6
23 | O=C(O)/C=C/c1ccc(C(=O)O)cc1 [Compound 025, trans-4-Carboxycinnamic acid] | 421.0 ± 10.6 | 496.7 ± 98.9
24 | O=C(O)/C=C/c1ccc(S)cc1 [Compound 026, trans-4-Mercaptocinnamic acid] | 159.7 ± 22.0 | 44.7 ± 2.7
25 | O=C(O)/C=C/c1ccc([N+](=O)[O-])cc1 [Compound 028, trans-4-Nitrocinnamic acid] | 14.4 ± 16.9 | 4.0 ± 0.3

Row | SMILES | Avg MFI ± SD, hrpA expression (6 h) | Avg MFI ± SD, hrpA expression (9 h)
26 | O=Cc1ccc(/C=C/C(=O)O)cc1 [Compound 029, trans-4-Formlycinnamic acid] | 285.1 ± 40.8 | 218.3 ± 9.9
27 | COC(=O)/C=C/c1ccccc1 [Compound 030, Methyl trans-cinnamate] | 674.8 ± 252.1 | 668.5 ± 31.2
28 | NC(=O)/C=C/c1ccccc1 [Compound 031, trans-Cinnamamide] | 98.0 ± 18.4 | 88.1 ± 4.6
29 | O=C(O)/C=C/c1ccc2ccccc2c1 [Compound 035, 3-(2-naphthyl) acrylic acid] | 178.9 ± 9.7 | 89.0 ± 6.2
30 | O=C(/C=C/c1ccc(Br)cc1)NO [Compound 128, trans-4-Bromocinnamohydroxamic acid] | 17.6 ± 2.8 | 5.7 ± 2.2
31 | O=C(/C=C/c1ccccc1O)NO [Compound 129, trans-2-Hydroxycinnamohydroxamic acid] | 187.9 ± 1.2 | 181.0 ± 0.7
32 | O=C(/C=C/c1cccc(O)c1)NO [Compound 130, trans-3-Hydroxycinnamohydroxamic acid] | 431.4 ± 4.1 | 491.0 ± 10.2
33 | NNC(=O)/C=C/c1ccc(O)cc1 [Compound 133, trans-3-(4-Hydroxyphenyl)acrylohydrazid] | 1716.5 ± 33.1 | 2780.9 ± 58.5
34 | O=C(NO)c1ccccc1O [Compound 135, Salicylhydroxamic acid] | 124.7 ± 7.7 | 147.8 ± 4.3
35 | O=C(O)C#Cc1ccccc1 [Compound 136, Phenylpropiolic acid] | 261.7 ± 1.0 | 307.0 ± 9.3
36 | O=C(/C=C/c1ccc(O)cc1)NCCO [Compound 138, N-(2-Hydroxyethyl)-4-hydroxycinnamamide] | 1474.5 ± 30.4 | 1907.0 ± 39.8
37 | O=C(CCc1ccccc1)NO [Compound 139, 3-Phenylpropionohydroxamic acid] | 306.3 ± 11.9 | 286.3 ± 10.0
38 | O=C(/C=C/c1ccc(-c2ccccc2)cc1)NO [Compound 140, trans-4-Phenylcinnamohydroxamic acid] | 101.7 ± 17.1 | 82.8 ± 4.3
39 | O=C(/C=C/c1ccc(F)cc1)NO [Compound 141, trans-4-Fluorocinnamohydroxamic acid] | 167.6 ± 4.7 | 119.0 ± 7.1
40 | Cc1ccc(/C=C/C(=O)NO)cc1 [Compound 142, trans-4-Methylcinnamohydroxamic acid] | 126.2 ± 5.6 | 106.0 ± 13.6
41 | O=C(COc1ccccc1)NO [Compound 143, 2-Phenoxyacetohydroxamic acid] | 228.7 ± 4.6 | 178.5 ± 27.1
42 | O=C(O)c1ccc(O)cc1 [Compound 144, 4-Hydroxybenzoic acid] | 434.4 ± 22.1 | 424.7 ± 24.8
43 | O=C(O)c1cccc(O)c1 [Compound 145, 3-Hydroxybenzoic acid] | 559.4 ± 23.6 | 529.9 ± 32.0
44 | O=Cc1ccc(/C=C/C(=O)NO)cc1 [Compound 146, trans-4-Formylcinnamohydroxamic acid] | 414.3 ± 31.6 | 435.2 ± 36.2
45 | O=C(/C=C/c1ccc(CO)cc1)NO [Compound 147, trans-4-Hydroxymethylcinnamohydroxamic acid] | 688.6 ± 39.2 | 746.8 ± 96.3
46 | O=C(/C=C/c1ccc(Cl)cc1)NO [Compound 148, trans-4-Chlorocinnamohydroxamic acid] | 22.5 ± 3.7 | 21.8 ± 25.2
47 | O=C(/C=C/c1ccccc1Cl)NO [Compound 150, trans-2-Chlorocinnamohydroxamic acid] | 25.9 ± 3.2 | 30.5 ± 3.3
48 | O=C(/C=C/c1cccc(Br)c1)NO [Compound 151, trans-3-Bromocinnamohydroxamic acid] | 6.3 ± 1.2 | 3.9 ± 1.2
49 | O=C(/C=C/c1ccccc1Br)NO [Compound 152, trans-2-Bromocinnamohydroxamic acid] | 15.7 ± 2.3 | 11.1 ± 1.2
50 | O=C(/C=C/c1cccc(F)c1)NO [Compound 153, trans-3-Fluorocinnamohydroxamic acid] | 177.1 ± 11.9 | 110.6 ± 3.2
